Consider two compounds from PMC12562321 (2025).

Assay [1] concerns OA63 (DNA, aptamer) CCGGGTGGGTGGGTGTGGTCTTGTATTTGATTATGTCTGTCGGCGCTTTTTGGCCCCTTCGTT
The assay is described as follows: electrochemical aptasensor (DPV). The settings on record: 150 mM NaCl, 2 mM Mg2+; 50 mM Tris pH 7.5, 25 °C, 30 min; capture probe P63_8; 5-200 nM OA.

In assay [2] the test system is OA31 (DNA, aptamer) CCACCAACGAGAGTCAGAAAACCATGGTGGG
The assay is described as follows: electrochemical aptasensor (DPV). The settings on record: 150 mM NaCl, 2 mM Mg2+, capture probe P31_14.

Regarding `C=C1[C@@H](O)[C@@H]2O[C@]3(CC[C@H](/C=C/[C@@H](C)[C@@H]4CC(C)=C[C@@]5(O[C@H](C[C@@](C)(O)C(=O)O)CC[C@H]5O)O4)O3)CC[C@H]2O[C@@H]1[C@@H](O)C[C@H](C)[C@H]1O[C@@]2(CCCCO2)CC[C@H]1C`, the binding result is listed as “yes” in assay [1] and “yes” in assay [2] (50 mM Tris pH 7.5, 4 °C, 5 min, 5-200 nM OA).
For the compound `C=C1[C@@H](O)[C@@H]2O[C@]3(CC[C@H](/C=C/[C@@H](C)[C@@H]4CC(C)=C[C@@]5(O[C@H](C[C@@](C)(O)C(=O)O)CC[C@H]5O)O4)O3)CC[C@H]2O[C@@H]1[C@@H](O)C[C@H](C)[C@H]1O[C@@]2(CC[C@H]1C)OCCC[C@H]2C`, in assay [2] (50 mM Tris pH 7.5, sensitivity 2 times lower than for OA), the binding entry is “yes”.
